Where two headings read alike, the source gives them in different places. Marks after values point to notes of the source that are not given here.
Key:
[1] = Transport of morphine and M6G in the vascularized proximal tubule MPS (VPT-MPS); type: in vitro ADME, human; details: human, with probenecid (1 mM) and tetraethylammonium (1 mM), read-out: Permeability
Protocol: (§1) The inner chamber of dual-channel MPS devices (Duplo, Fig. 1) (https://www.nortisbio.com/) was dried, filled with 6 mg/mL of rat tail collagen I, and left overnight to allow the collagen I matrix to solidify. The mandrels of the MPS platforms were then removed, leaving two hollow channels through the collagen I matrix. The PTEC channel was coated with a 5 µg/mL mouse collagen IV to facilitate human PTECs adhesion. Cultures of primary kidney epithelial cells were subjected to trypsin digestion to obtain single cell suspensions. The cells were counted and resuspended with PTECs culture media at a concentration of 20 × 10^6 cells/mL and 2–2.5 µL were injected into the collagen IV-coated channel. Cells were allowed to attach for 3 h before starting perfusion at a rate of 1.0 µL/min. A 1.0 µL/min perfusion of DMEM/F12 media containing ITS-A, 50 nM hydrocortisone, penicillin–streptomycin and amphotericin B was then initiated. Following 6 days under these culture conditions, the epithelial tubule was established and perfusion to the channel was stopped for a brief period. The parallel vacant channel was equilibrated with EGM-2 media containing 2% FBS for 2 h at 1.0 µL/min. Then, HUVECs (passages 5–10) were seeded into the equilibrated channel and allowed to attach for 30 min to establish an endothelial vessel. Flow to both channels was resumed at 1.0 µL/min with both channels receiving their respective culture medium. The day after seeding HUVEC, VPT-MPS were used for transport experiments. Prior to the beginning of experiments, a visual inspection under light microscope was performed to confirm complete (100%) coverage of both HUVEC vessel and PTEC tubule, respectively.
(§2) The flow rate of flow through both channels was set at 1 µL/min. Effluents from the vessel and the tubule were collected every 2 h, and drug concentrations in the samples were determined LC/MS/MS. Transport experiments were conducted across 3 different donors. Effluent measurements were extended out to 24 h in order to reach steady-state levels in solute output.

[2] = system: human primary proximal tubular epithelial cells (PTEC) tubule in VPT-MPS; test: as above; type: in vitro ADME; details: for CLint,sec: VPT-MPS derived intrinsic secretion clearance; for CLsecretion, each proximal subsegment S1, S2, and S3: clearance value of each proximal subsegment; for CLsecretion, each proximal subsegment S1, S2, and S3 / CLsecretion: scaled up from VPT-MPS; for CLsecretion: unbound intrinsic kidney active secretion clearance at proximal tubule, total; for CLapp, passive diffusion / CLapp, active secretion: one representative donor; for CLapp, passive diffusion / Concentration in endothelial cell / Efflux rate into lumen / CLapp, active secretion: mean ± SD; for Concentration in endothelial cell / Efflux rate into lumen: representative donor of Fig 2
Protocol: as §1, §2

[3] = Bidirectional transport across PTECs monolayers in conventional 2D Transwell; type: in vitro ADME, human; details: human; for Papp at 1.5 h, 1 µM: PTECs permeability study data used for CLr prediction; for Papp A→B at 1.5 h, 1 µM / Papp B→A at 1.5 h, 1 µM: Inhibitor (-), 1.5 hour incubation; for Papp A→B at 1.5 h, 1 µM: read-out: Papp Apical to Basal; for Papp B→A at 1.5 h, 1 µM: read-out: Papp Basal to Apical
Protocol: (§3) PTECs were seeded on polyester membrane HTS 24-well Transwell^TM inserts at 0.5-1 ×10^5 cells/well and cultured for 7-10 days until confluency. Transepithelial electrical resistance
(§4) (TEER) across PTECs monolayers was monitored by an EVOM meter from World Precision Instruments (Berlin, Germany). TEER values were normalized to culture surface areas of Transwell^TM inserts. Wells with TEER reading from 25-150 ohm∙cm^2 were used for experiments.
(§5) Samples were collected from basal (for apical to basal transport) or apical (for basal to apical transport) insert and analyzed by LC/MS/MS. Concentrations were used to determine apparent permeability (Papp) by using the following equation: […]

PTECs monolayers = test: as above; type: in vitro ADME, human; details: for CLint, secretion: considered as zero since no active secretion was observed in 2D Transwell; for Papp A→B / Papp B→A: Inhibitor (-), 1.5 hour incubation; for Papp A→B: read-out: Papp Apical to Basal; for Papp B→A: read-out: Papp Basal to Apical
Protocol: as §3, §4, §5

[4] = Bidirectional transport across MDCK monolayers in conventional 2D Transwell; type: in vitro ADME; details: dog, Inhibitor (-), 1.5 hour incubation
From the text: as §5

[5] = human, cited from earlier work
[6] = ref www.drugbank.ca; cited from earlier work
[7] = blood-to-plasma ratio; cited from earlier work
[8] = Morphine-M6G parent-metabolite full body PBPK model; parameters: species or system human; details: hepatic clearance; systemic clearance minus renal clearance
[9] = fraction of morphine metabolism to M6G; cited from earlier work

Work on `CN1CC[C@]23c4c5ccc(O)c4O[C@H]2[C@@H](O[C@@H]2O[C@H](C(=O)O)[C@@H](O)[C@H](O)[C@H]2O)C=C[C@H]3[C@H]1C5` [M6G, morphine-6-glucuronide] yielded a Papp at 24 h, 1 µM ([1]; Donor1, VPT-MPS) of 25.9 ± 28.5 ×10⁻⁶ cm/s, a Papp at 24 h, 1 µM ([1]; Donor2, VPT-MPS) of 9.74 ± 11.1 ×10⁻⁶ cm/s and a Papp at 24 h, 1 µM ([1]; Donor3, VPT-MPS) of 41.8 ×10⁻⁶ cm/s. For the same compound, the Papp at 24 h, 1 µM ([1]; PBPK model parameter, experimentally determined using VPT-MPS) was 23.8 ×10⁻⁶ cm/s, the “decrease in intrinsic clearance by transporter inhibitors” value ([2]; 1 mM probenecid and 1 mM tetraethylammonium, average of three donors) was 63.6% and the “CLint,sec” value ([2]; Donor1) was 15.6 ± 10.5 µL/h/MPS. The “CLint,sec” value ([2]; Donor2) was 1.29 ± 1.09 µL/h/MPS, the “CLint,sec” value ([2]; Donor3) was 22.9 µL/h/MPS and the “CLsecretion, each proximal subsegment S1, S2, and S3” value [2] was 14.5 L/h. For the same compound, the “CLint, active secretion, range between PTECs donors” value ([2]; three donors) was 1.29–22.9 µL/h/VPT-MPS, the CLsecretion [2] was 43.5 L/h and the “CLapp, passive diffusion” value ([2]; with inhibitor) was 1.92±2.02 μL/hr/MPS. For the same compound, the “Concentration in endothelial cell” value ([2]; with inhibitor) was 639 ± 34 nM, the “Efflux rate into lumen” value ([2]; with inhibitor) was 0.0191 ± 0.0192 pmol/min/MPS and the “CLapp, active secretion” value ([2]; without inhibitor) was 7.90±3.86 μL/hr/MPS. For the same compound, the “Concentration in endothelial cell” value ([2]; without inhibitor) was 640 ± 58 nM, the “Efflux rate into lumen” value ([2]; without inhibitor) was 0.110 ± 0.043 pmol/min/MPS and the Papp at 1.5 h, 1 µM ([3]; Donor3) was 40.1 ×10⁻⁶ cm/s. The Papp at 1.5 h, 1 µM ([3]; Donor5) was 28.6 ×10⁻⁶ cm/s, the Papp at 1.5 h, 1 µM ([3]; Donor6) was 40.1 ×10⁻⁶ cm/s and the Papp A→B at 1.5 h, 1 µM ([3]; Donor2) was 58 ×10⁻⁶ cm/s. The Papp B→A at 1.5 h, 1 µM ([3]; Donor2) was 54.6 ×10⁻⁶ cm/s, the Papp A→B at 1.5 h, 1 µM ([3]; Donor3) was 40.1 ± 7.5 ×10⁻⁶ cm/s and the Papp B→A at 1.5 h, 1 µM ([3]; Donor3) was 24.9 ± 14.2 ×10⁻⁶ cm/s. For the same compound, the Papp A→B at 1.5 h, 1 µM ([3]; Donor4) was 22.5 ×10⁻⁶ cm/s, the Papp B→A at 1.5 h, 1 µM ([3]; Donor4) was 12.2 ×10⁻⁶ cm/s and the Papp A→B at 1.5 h, 1 µM ([3]; Donor5) was 28.6 ± 1.6 ×10⁻⁶ cm/s. For the same compound, the Papp B→A at 1.5 h, 1 µM ([3]; Donor5) was 28.6 ± 2.1 ×10⁻⁶ cm/s, the Papp A→B at 1.5 h, 1 µM ([3]; Donor6) was 55.6 ×10⁻⁶ cm/s and the Papp B→A at 1.5 h, 1 µM ([3]; Donor6) was 42.2 ×10⁻⁶ cm/s. For the same compound, the “CLint, secretion” value (PTECs monolayers; Donor2) was 0 µL/h, the “CLint, secretion” value (PTECs monolayers; Donor3) was 0 µL/h and the “CLint, secretion” value (PTECs monolayers; Donor5) was 0 µL/h. For the same compound, the “CLint, secretion” value (PTECs monolayers; Donor6) was 0 µL/h, the Papp A→B at 1.5 h, 1 µM ([4]; read-out: Papp Apical to Basal) was 3.86 ×10⁻⁶ cm/s and the Papp B→A at 1.5 h, 1 µM ([4]; read-out: Papp Basal to Apical) was 1.53 ± 0.17 ×10⁻⁶ cm/s. The “CLr,observed” value [5] was 9.20–14.3[20],[21] L/h, the “CLr,observed” value ([5]; ref 5,6 (supplement)) was 9.20-14.3 ^5,6 L/hr and the “pKa (base)” value [6] was 9.12^b. The B/P [7] was 0.55^e.

For `CN1CC[C@]23c4c5ccc(O)c4O[C@H]2[C@@H](O)C=C[C@H]3[C@H]1C5` [Morphine, reference compound], the “CLsecretion, each proximal subsegment S1, S2, and S3” value [2] was 13.1 L/h, the CLsecretion [2] was 39.3 L/h and the “CLapp, passive diffusion” value ([2]; with inhibitor) was 2.09±1.58 μL/hr/MPS. For the same compound, the “CLapp, active secretion” value ([2]; without inhibitor) was 6.98±3.94 μL/hr/MPS, the CLh [8] was 75.3^i L/h and the B/P [7] was 1.08^e. For the same compound, the “fm,M6G” value [9] was 0.1^k.

With `Nc1ccc(C(=O)NCC(=O)O)cc1` [[^3H] PAH, para-aminohippuric acid, reference compound] the “active transport in 2D Transwell” value (PTECs monolayers; 2D culture, probe substrate of OAT1 and OAT3) was “negligible active transport”, the Papp A→B (PTECs monolayers; Donor2) was 72.4 ×10⁻⁶ cm/s and the Papp B→A (PTECs monolayers; Donor2) was 69.6 ×10⁻⁶ cm/s. It also gave a Papp A→B (PTECs monolayers; Donor3) of 31.7 ×10⁻⁶ cm/s, a Papp B→A (PTECs monolayers; Donor3) of 23 ×10⁻⁶ cm/s and a Papp A→B (PTECs monolayers; Donor6) of 71.7 ×10⁻⁶ cm/s. For the same compound, the Papp B→A (PTECs monolayers; Donor6) was 67.3 ×10⁻⁶ cm/s.
